In patent publication US20140100419A1, “ACTIVE VITAMIN D OR ANALOGS THEREOF FOR USE IN IN VIVO OR IN VITRO FERTILIZATION” (priority 2011, published 2014):

Tests used:
Assay type in all cases: cell-based
human spermatozoa [1] = assay: Intracellular calcium [Ca2+]i in fura-2 loaded human spermatozoa; conditions: for increase in [Ca2+]i after addition of 1 mM calcium: calcium free media, calcium added after treatment
Method: (§1) Calcium measurements and the acrosome reaction were performed on motile spermatozoa isolated after percoll density gradient centrifugation (Supra sperm gradients, (ORIGO)) following the manufacturer's instructions. Briefly, spermatozoa were separated from seminal plasma by centrifugation on a discontinuous percoll gradient using a two-step gradient comprising 2 ml layers of 55% and 80% percoll respectively. Semen was placed on the top of the gradient and centrifuged at 300×g for 25 min. The spermatozoa at the base of the 80% fraction were collected and washed with a 5 ml volume of capacitating medium (CaCl2 1.5 mM, KCl 4.3 mM, NaHCO3 31 mM, HEPES 15 mM, Human Serum Albumin 5 mg/ml, Glucose 4.5 mM, Sodium Pyruvate 0.8 mM, Synthetic Serum Replacement, 0.5 ug/ml human recombinant insulin (Sperm preparation media (ORIGO)) and finally resuspended in capacitating media and used for the following assays of calcium measurements and acrosome reaction. All men were part of the above mentioned ongoing surveillance program of semen quality among young Danish men and included after approval from the local ethical committee (No. H-4-2010-016).
Semen samples were separated by percoll density gradient centrifugation to ensure viable and motile spermatozoa and resuspended in capacitating media for 1.5 hours. Afterwards, loaded with 3 μM of the fluorescent probe (intracellular calcium binding) fura-2/AM (Invitrogen, USA) for 30 min, centrifuged (10 min at 300 g) and washed with Krebs-Ringer buffer (120 mM NaCl, 15 mM NaHCO3, 5 mM KCl, 1 mM CaCl2, 5 mM Na2HPO4, 1 mM MgCl2 pH 7.3). […] Subsequently, 80 μl of the sperm sample was diluted in 920 μl Krebs-Ringer buffer and loaded on polylysine-coated chambers to minimize movement of the spermatozoa (Lab-Tek; Nalge Nunc International, USA). A Zeiss Axiovert 135 microscope equipped with a Zeiss Achrostigmat 40×1.3 NA objective was used to acquire images from the fluorescent probe. Excitation was obtained by a Polychrome Villuminator from Till Photonics (Germany) and images were acquired using a Cool Snap CCD camera (Photometrics, USA) from Robert Scientific (Malaysia). For measurements of [Ca2+]i, the excitation wavelengths were 338 and 380 nm, measuring emission above 510 nm using a cut-off filter. […] After background subtraction, ratio images were formed using MetaFluor software.
All experiments started by using low magnification to ensure visibility of several spermatozoa simultaneously. […] All measurements of [Ca^2+], were based upon evaluation of at least three spermatozoa simultaneously (see exact number in figure legends), and were repeated in at least three separate experiments. We used 10 different semen donors to ensure that all experiments were reproduced on semen samples from at least two different men.

human spermatozoa [2] = assay: Acrosome reaction (PSA-FITC staining)
Method: as §1
Acrosome status was assessed according to a modified version of the method described by Cross et al. 1986. Motile spermatozoa were isolated by percoll gradient centrifugation, washed twice with 5 ml 0.9% sodium chloride followed by centrifugation at 300×g for 10 min. […] The smear and cytospin were fixed in 96% ethanol for 5 min after air drying, washed in distilled water and stained for minimum 2 hours with Pisum sativum agglutinin labelled with fluorescein isothiocyanate (Sigma Aldrich) in Dulbecco phosphate buffered saline at 4° C. Finally, the slides were washed in distilled water and mounted with Vectrashield (H-1080 Vectar Laboratories) and 200 spermatozoa were counted on each slide using a fluorescence microscope at a magnification of 400×. The mean percentage of acrosome-reacted spermatozoa of the two slides was calculated. When more than half the head of a spermatozoon was brightly and uniformly fluorescent, the acrosome was considered to be intact. Spermatozoa without fluorescence or with a fluorescing band limited to the equatorial segment were considered to be acrosome-reacted. Spermatozoa with a fluorescing band limited to the equatorial segment were named eq-AR. The person assessing the slides was blinded to the treatment of the sample.

human spermatozoa [3] = assay: Sperm motility of washed spermatozoa with or without percoll gradient centrifugation
human spermatozoa [4] = assay: Sperm motility (ABC) in semen samples exposed to 1,25(OH)2D3
Method: The participants produced a semen sample by masturbation. Self-reported information of duration of ejaculation abstinence was obtained. Trained technicians conducted semen analysis and a detailed description of assessment of semen samples has previously been published. Semen volume was estimated by weighing. For sperm motility assessment, duplicates of 10 μl of well-mixed semen were placed on a glass slide, examined on a heating stage kept at 37° C., under a microscope at ×400 magnification, and spermatozoa were classified as progressive motile (WHO class A+B), non-progressive motile (class C) or immotile (class D). The average of the two motility assessments was used. For the assessment of the sperm concentration the samples were diluted in a solution of 0.6 mol/l NaHCO3 and 0.4% (v/v) formaldehyde in distilled water, and subsequently assessed using Bürker-Türk haemocytometer. Only spermatozoa with tails were counted. Finally, smears were prepared, Papanicolaou stained and spermatozoa morphology assessed according to strict criteria (Menkveld et al., 1990).
Semen samples for the in vitro studies were obtained from 40 men from the general population, who were investigated between October 2009 and December 2010. Their semen samples were assessed as described above. […] Motility assessment was conducted in 17 samples (in duplicates) under non-capacitating conditions (in their seminal plasma), and 3 samples were also analyzed in capacitating conditions. 7 consecutively included men were used to investigate a dose-response relationship between VD and sperm motility.

[5] = system: zona pellucida (ZP) of human oocytes; assay: Human sperm-zona pellucida interaction (sperm-egg binding) test
Description: We used the Human sperm-zona pellucida interaction test that is designed to determine the capacity of sperm to interact with the zona pellucida (ZP) of human oocytes and serves thus as a test for evaluating fertility potential of human spermatozoa. The tests provide important diagnostic information about sperm fertilising ability and we used a modified version of the test developed by Liu and Baker (Liu and Baker hum reprod 1999 Defective sperm-zona pellucida interaction: a major cause of failure of fertilization in clinical in-vitro fertilization).
If the oocyte had sperm bound to the ZP from the IVF insemination, these were removed by aspiration using a fine glass pipette with an inner diameter (120 μm) slightly smaller than the oocyte diameter. […] Oocytes with >10 sperm penetrating the ZP were not used. Also degenerate, activated or morphologically abnormal oocytes were not used for the sperm-ZP interaction test. Oocytes were pooled from several patients and used for the test on the same day or kept in the incubator and used within the next 20 days. Between 15-30 oocytes was placed in 1 ml salt solution (storage 2-4 weeks). Salt-stored human oocytes were washed with gamete buffer (COOK) with four changes in 3 hours before they were used for the sperm-egg binding test.
Semen samples from five donors were used. […] The washed sperm pellet was resuspended with sEBSS to a sperm concentration of 2×10^6/ml for the ZP-interaction test. For the assessment of the sperm concentration the samples were diluted following the manufactures instruction and subsequently determined using SP-100 (Chemometec).
For the sperm-ZP interaction tests, either high quality sperm or total sperm sample (2×10^6) in 0.5 ml of medium (+/−1 nM Calcitriol) were incubated with three oocytes for 2 h at 37° C. in 5% CO2 in air. After incubation, the oocytes were transferred to sEBSS and washed by repeated aspiration with a glass pipette (inside diameter approximately 250 μm) to dislodge sperm loosely adhering to the surface of the ZP. Sperm binding to all oocytes was assessed.

[6] = calcium free media with 5 μM EGTA
[7] = 1 nM 1,25(OH)2D3 after pretreatment with nifedipine 10 μM

C=C1/C(=C\C=C2/CCC[C@]3(C)[C@@H]([C@H](C)CCCC(C)(C)O)CC[C@@H]23)C[C@@H](O)C[C@H]1O [1β,25(OH)2D3, 1β,25-(OH)2D3]
effect on calcium effect of progesterone (human spermatozoa [1]; Example 4): did not abrogate | effect on calcium response to 1,25(OH)2D3 (human spermatozoa [1]; Example 4, non-genomic competitive antagonist): abrogated the response to 1,25(OH)2D3 completely | effect of pretreatment on calcium response to 1,25(OH)2D3 (VD response) (human spermatozoa [1]; pretreatment with 1-40 μM 1β,25(OH)2D3): blocked completely

CC(=O)[C@H]1CC[C@H]2[C@@H]3CCC4=CC(=O)CC[C@]4(C)[C@H]3CC[C@]12C [progesterone]
time until calcium level restored to baseline after initiation of treatment (human spermatozoa [1]; 10 μM progesterone after nifedipine 10 μM pretreatment): 9 min | increase in [Ca2+]i (human spermatozoa [1]; [6]): could not induce an increase | increase in [Ca2+]i after addition of 1 mM calcium (human spermatozoa [1]): comparable to the increase observed in the normal calcium containing Krebs Ringer solution

C=C1CC[C@H](O)C/C1=C/C=C1\CCC[C@]2(C)[C@@H]([C@H](C)CCCC(C)(C)O)CC[C@@H]12 [25-OH D3, 25-OH Vitamin D3]
increase in [Ca2+]i (human spermatozoa [1]; 25-OH D3 100 nM): unable to elicit an increase | increase of [Ca2+]i (human spermatozoa [1]; Example 4, 25-OHD3 in the nanomolar range): unable to increase [Ca^2+], substantially | increase of [Ca2+]i (human spermatozoa [1]; Example 4, higher concentrations of 25-OHD3 (1 μM, FIG. 7)): marked but delayed increase

COc1ccc2c(c1)CC[C@@H]1[C@@H]2CC[C@]2(C)[C@@H](NCCCCCCN3C(=O)C=CC3=O)CC[C@@H]12 [U73122, 1-[6-[[17fi-3-methoxyestra-1,3,5(10)-trien-17-yl]amino]hexyl]-lH-pyrrole-2,5-dione]
increase of baseline [Ca2+]i (human spermatozoa [1]; 10 μM U73122): more than 5 fold | proportion of spermatozoa with increased baseline [Ca2+]i (human spermatozoa [1]; 10 μM U73122): > 80% | effect of PLC inhibition on the effect of progesterone (human spermatozoa [1]; U73122, data not shown): unable to abrogate

C=C1/C(=C\C=C2/CCC[C@]3(C)[C@@H]([C@H](C)/C=C/[C@@H](O)C4(C(=O)OCCCC)CC4)CC[C@@H]23)C[C@@H](O)C[C@@H]1O [ZK159222]
effect on calcium increase by 1,25(OH)2D3 (human spermatozoa [1]; Example 4, pre-treatment with 100 nM ZK159222 (FIG. 5)): unable to influence | effect of antagonist on calcium response to 1,25(OH)2D3 (human spermatozoa [1]; ZK159222 0.1-100 μM, data not shown): unable to abrogate or suppress

C=C1/C(=C\C=C2/CCC[C@]3(C)[C@@H]([C@H](C)CCCC(C)(C)O)CC[C@@H]23)C[C@@H](O)C[C@@H]1O [1,25(OH)2D3, 1,25-dihydroxycholecalciferol]
threshold for the all-or-nothing calcium response (human spermatozoa [1]): 10 to 50 µM | time until calcium levels restore back to baseline (human spermatozoa [1]): ≤ 2 min | max amplitude relative to max amplitude elicited by 10 μM progesterone (human spermatozoa [1]; 1 nM 1,25(OH)2D3): 40-80% | maximum amplitude of calcium increase versus baseline calcium level (human spermatozoa [1]; 1 nM 1,25(OH)2D3): 5-10 fold | amplitude of calcium response versus capacitating media (human spermatozoa [1]; 1 nM 1,25(OH)2D3, non-capacitating media, data not shown): lower amplitude | length of repolarisation phase (human spermatozoa [1]; [7]): 4 min | maximum amplitude of calcium increase versus baseline (human spermatozoa [1]; [7]): 7 fold | increase in intracellular calcium ([Ca2+]i) from baseline calcium level (human spermatozoa [1]; 1,25(OH)2D3 100 μM-10 μM (so in the source), motile spermatozoa): 5-10 fold | calcium response (human spermatozoa [1]; 1,25(OH)2D3 added 9 min after initiation of thapsigargin 4 μM): unable to elicit a substantial calcium response | calcium response (human spermatozoa [1]; 1,25(OH)2D3 in spermatozoa exposed to 2 μM U73122): unable to induce a rapid increase | time to max amplitude of the normal rapid calcium response (human spermatozoa [1]; 1,25(OH)2D3 without inhibitor): within one minute | duration of plateau phase of [Ca2+]i (human spermatozoa [1]; <10 nM 1,25(OH)2D3): up to 50 sec | change in Ca2+ concentration (human spermatozoa [1]; Example 4, 1 nM (FIG. 4)): instant increase | start of calcium increase in the neck region (human spermatozoa [1]; after addition of 1,25(OH)2D3): ≤ 5 s | increase in [Ca2+]i (human spermatozoa [1]; [6]): could not induce an increase | calcium response (human spermatozoa [1]; calcium free media without EGTA): marked response | increase in [Ca2+]i after addition of 1 mM calcium (human spermatozoa [1]): comparable to the increase observed in the normal calcium containing Krebs Ringer solution | duration of plateau phase of [Ca2+]i (human spermatozoa [1]; higher 1,25(OH)2D3 concentrations): 50 to 300 s | duration of intracellular calcium increase before return to baseline (human spermatozoa [1]; physiological concentrations): up to 90 seconds | effect of pre-treatment on the calcium effect of progesterone (human spermatozoa [1]; pre-treatment with 1,25(OH)2D3, then 10 μM progesterone): could not be abrogated | median acrosome reacted spermatozoa, VD group (human spermatozoa [2]; 10^-9 M, capacitating conditions (control group 12%)): 21% | median percentage of spermatozoa with an equatorial band (eq. AR) (human spermatozoa [2]; 10^-9 M, capacitating conditions (from 4.7%), p=0.214): 5.3% | average increase in number of acrosome reacted spermatozoa (human spermatozoa [2]; 10^-9 M, capacitating conditions, p=0.024): 6% | acrosome reacted spermatozoa, VD treated (human spermatozoa [2]; non-capacitating conditions (NaCl), 6 men (control 3.7%), not significant): 4.2% | change in proportion of motile sperm (human spermatozoa [3]; 1 nM calcitriol, 24 hours at room temperature, with and without percoll, not substantially different from vehicle): modest decrease | motile sperm (human spermatozoa [3]; 1 nM, 60 minutes, isolated by percoll gradient centrifugation (from 62%)): 65% | sperm motility (mean) (human spermatozoa [3]; 1 nM, 60 minutes, no percoll centrifugation (vehicle mean 50)): 48 | time spermatozoa remain motile after treatment (human spermatozoa [3]; Example 5 + FIG. 9): at least 24 hours | median decrease in sperm motility compared with control (human spermatozoa [4]; 10^-5M): 15% | median increase in sperm motility (human spermatozoa [4]; 10^-9M, p=0.006): 7% | increase in median sperm motility (ABC) (human spermatozoa [4]; 10^-14M to 10^-9M, non-capacitating conditions): 2-7% | increase in mean sperm motility (human spermatozoa [4]; 17 men, 10^-9M for 30 min at room temperature, p=0.010): 2.9% | sperm motility compared with control (human spermatozoa [4]; concentrations above 10^-7M): decreased motility compared with control | mean number of spermatozoa bound to each oocyte ([5]; 1 nM, 5 donors, all pretreatments (vehicle mean 52)): 74 | mean difference in sperm bound versus vehicle ([5]; 1 nM, 5 donors, all pretreatments, p=0.022): 43% | average improvement of sperm-egg binding versus vehicle ([5]; 1 nM, isolated with percoll gradient centrifugation, p=0.027): 28% | difference in sperm-egg binding versus vehicle ([5]; 1 nM, not separated by percoll gradient centrifugation, p=0.139): 60% | increase in sperm-egg binding ([5]; patient 3 (low semen quality), following percoll gradient centrifugation): 33% | change in sperm-egg binding ([5]; patient 3 (low semen quality), not separated by Percoll centrifugation): modest decline

C[C@H](CCC(=O)O)C[C@H](C)C[C@H](C)C(=O)/C=C(\O)[C@H](C)C[C@H](C)C/C=C/[C@@H](C)[C@@H](O)[C@@H](C)[C@@H](O)C[C@@H]1CC[C@@](C)([C@H]2CC[C@@](C)([C@@H](C)O)O2)O1 [Ionomycin, ionomycin]
amplitude of calcium response from baseline (human spermatozoa [1]; ionomycin 500 nM, calcium free media with EGTA): < 3 fold

C/C=C(/C)C(=O)O[C@H]1C(C)=C2[C@H]([C@@H]1OC(=O)CCCCCCC)[C@@](C)(OC(C)=O)C[C@H](OC(=O)CCC)[C@@]1(O)[C@H]2OC(=O)[C@@]1(C)O [thapsigargin]
stable plateau of calcium concentration versus baseline (human spermatozoa [1]; thapsigargin 4 μM, nine minutes after exposure): 3 fold | effect on calcium response to 1,25(OH)2D3 (human spermatozoa [1]; thapsigargin <1 μM): unable to abrogate
